The results in this text go back to patent publication US9751919B2, “Antimicrobial compositions comprising a hyaluronic acid binding peptide and a β-lactam antibiotic” (priority 2012, dated 2017).

Several values for one entry are separate records, joined by “and”; a condition that tells them apart may be missing. Equal values may be shown once.

This assay has as its system VISA. Description: MIC (CLSI broth dilution), agent alone. The assay is classed as cell-based, Staphylococcus aureus. Further details: unit: µg/mL. Here is the method: VISA (strains 92, 95 and 96), VRSA (strains 105 and 106) and E. coli (strain 69717) isolates were also tested. One MSSA was used as a control. All MICs were assessed using CLSI guidelines. Also assessed was the activity of cefazolin, ceftriazone, meropenem, and a piperacillin/tazobactam combination antibiotic. Minimum inhibitory concentration (MIC) is the lowest concentration of an antimicrobial that will inhibit the visible growth of a microorganism after incubation.
Antimicrobial Susceptibility Testing: A custom designed panel of antimicrobials was created. The panel included: PEP35, penicillin, piperacillin/tazobactam, cefazolin, ceftriaxone, meropenem, clarithromycin, clindamycin, gentamicin, amikacin, vancomycin, ciprofloxacin, levofloxacin, moxifloxacin, linezolid, trimethoprim/sulfamethoxazole and doxycycline. These agents were obtained as laboratory grade powders from their respective manufacturers. Stock solutions were prepared and dilutions made as described by the Clinical Laboratory Standards Institute (2005 CLSI). Following two subcultures from frozen stock the MICs of the antimicrobial agents for the isolates were determined by the CLSI 2005 approved broth macrodilution method. Briefly, test tubes containing doubling antibiotic dilutions (2 ml per tube) of cation adjusted Mueller-Hinton broth (eg. for Enterobacteriaceae) with or without lysed horse blood (2-5% V/V) [eg. for S. pneumoniae] were inoculated to achieve a final concentration of approximately 5×10^5 CFU/ml and incubated in ambient air for 24 hours prior to reading. Colony counts were performed periodically to confirm inocula. Quality control was performed every two weeks using a variety of ATCC QC organisms including; S. aureus 29213, E. faecalis 29212, E. coli 25922 and P. aeruginosa 27853. For all antimicrobials as well as PEP35, CLSI criteria were used.
One MSSA was used as a control. All MICs were assessed using CLSI guidelines.

For the substance “LKQKIKHVVKLKVVVKLRSQLVKRKQN (listed as Mus sp.) [PEP35]”, the MIC by setting is: (VISA 92) 1024 and 2048/2048/2048; (VISA 96) 512 and 512/512/512.

Turning to “KKKKKLQLQLNLIKKKVQVSVVVVRRH (Reordered human peptide sequence) [Scrambled PEP35]”, the MIC runs as follows: (VISA 92, in µg/mL) 2048; (VISA 95, in µg/mL) 2048; (VISA 96, in µg/mL) 1024.

Turning to piperacillin/tazobactam, the MIC reads like this: (VISA 92, in µg/mL) 64; (VISA 95, in µg/mL) 64; (VISA 96, in µg/mL) 64.
